The IC50 is the concentration at which inhibition is half-maximal.

The target of the test is DCN1-like protein 1/NEDD8-conjugating enzyme Ubc12 (Homo sapiens, UniProt Q96GG9). The experiment in a line: Inhibition of GST-tagged DCN1 PONY domain (unknown origin)/human N-terminal acetylated UBC12 (1 to 12 residues) protein-protein interaction incubated for 1 hr by HTRF analysis. Format: protein assay.
Chain of DCN1-like protein 1/NEDD8-conjugating enzyme Ubc12 (Q96GG9 whole entry, the tested form may be a part): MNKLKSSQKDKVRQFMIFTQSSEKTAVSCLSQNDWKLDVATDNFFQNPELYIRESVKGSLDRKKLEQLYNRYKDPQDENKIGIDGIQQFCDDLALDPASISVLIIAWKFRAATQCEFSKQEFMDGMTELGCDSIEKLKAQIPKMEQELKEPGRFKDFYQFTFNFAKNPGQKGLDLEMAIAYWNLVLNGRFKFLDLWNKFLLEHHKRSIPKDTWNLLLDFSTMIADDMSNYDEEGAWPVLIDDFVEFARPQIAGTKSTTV
Chain of DCN1-like protein 1/NEDD8-conjugating enzyme Ubc12 (P61081 whole entry, further chain, the tested form may be a part): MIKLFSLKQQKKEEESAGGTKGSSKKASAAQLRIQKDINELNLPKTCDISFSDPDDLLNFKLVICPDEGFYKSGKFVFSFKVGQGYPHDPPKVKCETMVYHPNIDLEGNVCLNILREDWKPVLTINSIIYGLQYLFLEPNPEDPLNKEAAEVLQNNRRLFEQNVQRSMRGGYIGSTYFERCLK
The molecule `Cc1cc(Sc2nnnn2CCN(C)C)n2nc(SCc3cc(=O)oc4c3ccc3ccccc34)nc2n1` gave an IC50 of 309 nM.

As for `C#CCSc1nc2nc(C)cc(Sc3nnnn3CCN(C)C)n2n1`, the IC50 was determined as 67 nM.

`CN(C)CCn1nnnc1Sc1c2c(nc3ncnn13)CCC2`: the IC50 was determined as 61 nM.

In turn, `Cc1nc2nc(SCc3ccc(Cl)cc3)nn2c(Sc2nnnn2CCN(C)C)c1C` gave an IC50 of 3360 nM.

Molecule `COCCOc1cc2ncnc(Sc3nnnn3CCN(C)C)c2cc1OCCOC` showed an IC50 of over 50000 nM.

On to `CCc1cc(Sc2nnnn2CCN(C)C)n2nc(SCc3ccccc3)nc2n1`, for which the IC50 was 352 nM.

As to `C#CCSc1nc2nc(-c3ccccc3)cc(Sc3nnnn3CCN(C)C)n2n1`, it took 79 nM to reach half-maximal inhibition (IC50).

Take `Cn1nnnc1Sc1cc(-c2ccccc2)nc2ncnn12`: the IC50 came out at 5820 nM.

Molecule `Oc1ccc(-n2nnnc2Sc2cc(-c3ccccc3)nc3ncnn23)cc1` had an IC50 of 3880 nM.

Turning to `Cc1cc(Sc2nnnn2CCN(C)C)n2nc(SCc3csc4ccc(Cl)cc34)nc2n1`, the IC50 was 4890 nM.

As to `Cc1cc(Sc2nnnn2CCN(C)C)n2nc(SCc3cccc4ccccc34)nc2n1`, the IC50 stood at 209 nM.

In the case of `Cc1cc(Sc2nnnn2CCN(C)C)n2nc(SCc3c(Cl)cccc3Cl)nc2n1`, 192 nM corresponded to half-maximal inhibition (IC50).

Regarding `Cc1cc(Sc2nnnn2CCN(C)C)n2nc(SCc3ccc(Br)cc3)nc2n1`, the half-inhibitory concentration (IC50) amounted to 15 nM.

`Cc1cc(Sc2nnnn2CCN(C)C)n2nc(SCc3cccc(Br)c3)nc2n1` registered an IC50 of 195 nM.

With `Cc1cc(Sc2nnnn2CCN(C)C)n2nc(SCC3CCCCC3)nc2n1`, the concentration for half-maximal inhibition (IC50) was found to be 58 nM.

With `Cc1cc(Sc2nnnn2CCN(C)C)n2nc(SCc3ccccc3Br)nc2n1`, it took 824 nM to reach half-maximal inhibition (IC50).

The molecule `Cc1cc(Sc2nnnn2CCN(C)C)n2nc(SCc3ccc(F)c(Cl)c3)nc2n1` yielded an IC50 of 22 nM.

As to `Cc1cc(Sc2nnnn2CCN(C)C)n2nc(SCCc3ccccc3)nc2n1`, 438 nM corresponded to half-maximal inhibition (IC50).

In the case of `CN(C)CCn1nnnc1Sc1cc(-c2ccccc2)nc2nc(SCc3ccccc3)nn12`, the IC50 was 290 nM.

For the molecule `Cc1cc(Sc2nnnn2CCN(C)C)n2nc(SCc3ccccc3[N+](=O)[O-])nc2n1`, half-maximal inhibition (IC50) was put at 24 nM.

Molecule `Cc1cc(Sc2nnnn2CCN(C)C)n2nc(SCCCc3ccccc3)nc2n1` displayed an IC50 of 532 nM.

Molecule `Cc1cc(Sc2nnnn2CCN(C)C)n2nc(SCc3ccc(F)cc3)nc2n1` registered an IC50 of 16 nM.

The molecule `Cc1cc(Sc2nnnn2CCN(C)C)n2nc(SCc3ccccc3C(F)(F)F)nc2n1` yielded an IC50 of 654 nM.

`C=CCSc1nc2nc(C)cc(Sc3nnnn3CCN(C)C)n2n1` displayed an IC50 of 137 nM.

`Cc1cc(Sc2nnnn2CCN(C)C)n2nc(SCc3ccc([N+](=O)[O-])cc3)nc2n1` yielded an IC50 of 39 nM.

`Cc1cc(Sc2nnnn2CCN(C)C)n2nc(SCc3cccc(C(F)(F)F)c3)nc2n1` showed an IC50 of 1080 nM.

`CCCSc1nc2nc(C)cc(Sc3nnnn3CCN(C)C)n2n1` displayed an IC50 of 214 nM.

Regarding `Cc1cc(Sc2nnnn2CCN(C)C)n2nc(SCC3CC3)nc2n1`, it took 59 nM to reach half-maximal inhibition (IC50).

Turning to `CN(C)CCn1nnnc1Sc1ncnc2ccsc12`, the 50% inhibitory concentration (IC50) was over 50000 nM.

Turning to `Cc1ccc(CSc2nc3nc(C)cc(Sc4nnnn4CCN(C)C)n3n2)cc1`, it took 78 nM to reach half-maximal inhibition (IC50).

Consider `Cc1cc(Sc2nnnn2CCN(C)C)n2nc(SCc3ccccc3)nc2n1`, for which 22 nM corresponded to half-maximal inhibition (IC50).

Regarding `COc1ccc(CSc2nc3nc(C)cc(Sc4nnnn4CCN(C)C)n3n2)cc1`, half-maximal inhibition (IC50) was put at 28 nM.

In turn, `Cc1cc(Sc2nnnn2CCN(C)C)n2nc(SCc3ccc(C(F)(F)F)cc3)nc2n1` registered an IC50 of 186 nM.

Regarding `CN(C)CCn1nnnc1Sc1cc(C2CC2)nc2ncnn12`, it took 127 nM to reach half-maximal inhibition (IC50).

The molecule `CC(C)c1cc(Sc2nnnn2CCN(C)C)n2ncnc2n1` came in with an IC50 of 1360 nM.

For the molecule `Cc1cc(Sc2nnnn2CCN(C)C)n2ncnc2n1`, half-maximal inhibition (IC50) was put at 51 nM.

The molecule `c1ccc(-c2cc(Sc3nnnn3-c3ccccc3)n3ncnc3n2)cc1` had an IC50 of 15800 nM.

Consider `Cc1cc(Sc2nnnn2CCN(C)C)n2nc(SCc3ccc(Cl)c(F)c3)nc2n1`, for which the IC50 worked out at 17 nM.

With `Cc1cc(Sc2nnnn2CCN(C)C)n2nccc2n1`, it took 4210 nM to reach half-maximal inhibition (IC50).
